Measurements: paper PMC10377353, “Targeted Destruction of S100A4 Inhibits Metastasis of Triple Negative Breast Cancer Cells” (Biomolecules, 2023)

Target: T1, S100A4 (Homo sapiens, UniProt P26447)
T1 construct: recombinant human (rh)S100A4, pET-15b, E. coli BL21 (DE3); with nonmuscle myosin IIA C-terminal fragment (rC-NMIIA, 149 terminal amino acids)
Experiment: resonant mirror biosensor (SPR-type), inhibition of rhS100A4 binding to immobilised rC-NMIIA

T1 sequence (P26447 2-101): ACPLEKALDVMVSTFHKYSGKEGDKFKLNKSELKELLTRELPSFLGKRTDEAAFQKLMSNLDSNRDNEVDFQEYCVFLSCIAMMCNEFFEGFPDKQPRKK
T1 sequence (P35579 2-1960 partner): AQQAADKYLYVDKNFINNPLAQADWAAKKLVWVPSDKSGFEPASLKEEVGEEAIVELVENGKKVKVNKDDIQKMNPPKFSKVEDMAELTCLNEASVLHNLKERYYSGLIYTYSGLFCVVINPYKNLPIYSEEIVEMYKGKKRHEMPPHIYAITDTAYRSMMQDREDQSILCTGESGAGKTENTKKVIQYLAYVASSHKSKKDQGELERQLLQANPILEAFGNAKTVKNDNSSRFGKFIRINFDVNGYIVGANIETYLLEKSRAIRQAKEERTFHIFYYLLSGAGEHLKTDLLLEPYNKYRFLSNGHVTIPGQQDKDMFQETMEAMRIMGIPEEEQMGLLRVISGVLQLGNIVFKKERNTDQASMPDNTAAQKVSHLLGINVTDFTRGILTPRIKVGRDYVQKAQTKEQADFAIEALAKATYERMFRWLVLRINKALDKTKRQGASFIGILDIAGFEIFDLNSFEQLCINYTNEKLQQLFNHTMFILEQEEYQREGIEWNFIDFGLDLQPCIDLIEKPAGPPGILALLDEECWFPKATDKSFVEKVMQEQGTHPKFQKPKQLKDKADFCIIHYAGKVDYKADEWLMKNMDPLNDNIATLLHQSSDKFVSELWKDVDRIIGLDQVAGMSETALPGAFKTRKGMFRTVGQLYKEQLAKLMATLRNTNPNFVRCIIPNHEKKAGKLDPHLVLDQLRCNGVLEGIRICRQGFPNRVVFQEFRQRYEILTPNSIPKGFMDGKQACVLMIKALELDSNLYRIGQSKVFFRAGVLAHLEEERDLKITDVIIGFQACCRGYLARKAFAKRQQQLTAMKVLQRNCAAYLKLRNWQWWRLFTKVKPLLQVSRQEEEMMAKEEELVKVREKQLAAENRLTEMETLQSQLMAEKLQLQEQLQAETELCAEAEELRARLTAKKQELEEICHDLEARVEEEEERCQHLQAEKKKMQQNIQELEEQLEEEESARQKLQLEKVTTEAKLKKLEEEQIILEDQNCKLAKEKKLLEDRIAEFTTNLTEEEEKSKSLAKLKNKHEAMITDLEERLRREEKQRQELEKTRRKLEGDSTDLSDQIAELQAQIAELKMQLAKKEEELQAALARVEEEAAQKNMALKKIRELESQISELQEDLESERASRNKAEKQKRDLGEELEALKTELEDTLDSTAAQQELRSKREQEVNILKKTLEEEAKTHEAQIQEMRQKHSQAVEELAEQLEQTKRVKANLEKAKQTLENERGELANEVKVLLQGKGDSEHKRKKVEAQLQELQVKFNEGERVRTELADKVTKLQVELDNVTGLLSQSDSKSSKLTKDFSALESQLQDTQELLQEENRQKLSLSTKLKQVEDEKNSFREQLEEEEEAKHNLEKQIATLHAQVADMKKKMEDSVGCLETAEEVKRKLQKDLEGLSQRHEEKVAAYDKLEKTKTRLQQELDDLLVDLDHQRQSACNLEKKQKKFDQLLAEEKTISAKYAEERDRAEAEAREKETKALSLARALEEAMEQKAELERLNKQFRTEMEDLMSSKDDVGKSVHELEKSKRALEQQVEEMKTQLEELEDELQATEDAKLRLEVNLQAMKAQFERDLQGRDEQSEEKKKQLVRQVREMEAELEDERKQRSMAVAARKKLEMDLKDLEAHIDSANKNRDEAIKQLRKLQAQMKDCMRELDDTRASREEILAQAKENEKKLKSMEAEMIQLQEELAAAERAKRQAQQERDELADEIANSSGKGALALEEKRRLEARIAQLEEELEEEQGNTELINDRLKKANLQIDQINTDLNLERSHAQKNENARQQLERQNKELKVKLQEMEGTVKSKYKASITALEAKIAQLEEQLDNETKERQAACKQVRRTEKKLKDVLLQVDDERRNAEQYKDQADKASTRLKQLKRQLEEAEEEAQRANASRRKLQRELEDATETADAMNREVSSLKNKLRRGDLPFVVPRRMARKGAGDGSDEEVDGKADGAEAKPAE

## COC1(OC)[C@@]2(Cl)C(Cl)=C(Cl)[C@]1(Cl)[C@@H]1C(=O)N(c3ccccc3C)C(=O)[C@@H]12 [CT070909]
  inhibition at 33 µM: > 90%
